According to US20060030585A1, “Tricyclic delta-opioid modulators” (priority 2004, published 2006):
Where two headings read alike, the source gives them in different places.

How the values were obtained:
mu opioid receptor = mu opioid receptor (Rattus norvegicus, UniProt P33535); experiment: Rat brain mu opioid receptor binding assay ([3H]DAMGO); conditions: Rat mu opioid receptor binding constant, rat forebrain membranes, ~0.8 nM [3H]DAMGO
Description: Rat Brain Mu Opioid Receptor Binding Assay
(§1) Procedure: Male, Sprague Dawley rats (150-250 g, VAF, Charles River, Kingston, N.Y.) were killed by CO2, and their brains removed and placed immediately in ice cold Tris HCl buffer (50 mM, pH 7.4). The forebrains were separated from the remainder of the brain by a coronal transection, beginning dorsally at the colliculi and passing ventrally through the midbrain-pontine junction. After dissection, the forebrains were homogenized in Tris buffer in a Teflon®-glass homogenizer. The homogenate was diluted to a concentration of 1 g of forebrain tissue per 80 mL Tris and centrifuged at 39,000×g for 10 min. The pellet was resuspended in the same volume of Tris buffer containing 5 mM MgCl2 with several brief pulses from a Polytron homogenizer. This particulate preparation was used for the delta opioid binding assays.
(§2) Analysis: The data from the scintillation counter were used to calculate either the % inhibition compared to control binding (when only a single concentration of test compound was evaluated) or a Ki value (when a range of concentrations tested). Percent inhibition was calculated as: [(total dpm-test compound dpm)/(total dpm-nonspecific dpm)]*100. Kd and Ki values were calculated using GraphPad PRISM data analysis program.

delta opioid receptor = delta opioid receptor (Rattus norvegicus, UniProt P33533); experiment: Rat brain delta opioid receptor binding assay ([3H]DPDPE); conditions: Rat delta opioid receptor binding constant, rat forebrain membranes, ~4 nM [3H]DPDPE
Description: Rat Brain Delta Opioid Receptor Binding Assay
as §1, with “assays. Following incubation with the delta selective peptide ligand ˜4 nM [^3H]DPDPE at 25° C. for 2.5 h in a 96-well plate with total volume of 1 mL, the plate contents were filtered through Wallac filtermat B sheets on a Tomtec 96-well harvester. The filters were rinsed three times with 2 mL of 10 mM HEPES (pH 7.4), and dried in a 650 W microwave oven for 1.75 min twice. To each sample area 2×50 μL of Betaplate Scint scintillation fluid (LKB) was added and the radioactivity quantified on a LKB (Wallac) 1205 BetaPlate liquid scintillation counter.” for “assays.”
as §2, with “concentrations was” for “concentrations”

Sequence of delta opioid receptor (P33533 whole entry): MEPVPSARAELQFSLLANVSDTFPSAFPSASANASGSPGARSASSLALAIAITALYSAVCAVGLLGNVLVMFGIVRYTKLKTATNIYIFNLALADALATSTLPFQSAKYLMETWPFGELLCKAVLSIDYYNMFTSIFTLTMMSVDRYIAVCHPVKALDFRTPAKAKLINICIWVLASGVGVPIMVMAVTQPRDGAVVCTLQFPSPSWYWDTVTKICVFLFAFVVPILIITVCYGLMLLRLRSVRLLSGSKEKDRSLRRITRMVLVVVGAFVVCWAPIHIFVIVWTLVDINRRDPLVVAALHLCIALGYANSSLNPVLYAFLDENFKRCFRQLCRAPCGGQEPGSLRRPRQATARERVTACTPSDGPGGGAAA
Sequence of mu opioid receptor (P33535 whole entry): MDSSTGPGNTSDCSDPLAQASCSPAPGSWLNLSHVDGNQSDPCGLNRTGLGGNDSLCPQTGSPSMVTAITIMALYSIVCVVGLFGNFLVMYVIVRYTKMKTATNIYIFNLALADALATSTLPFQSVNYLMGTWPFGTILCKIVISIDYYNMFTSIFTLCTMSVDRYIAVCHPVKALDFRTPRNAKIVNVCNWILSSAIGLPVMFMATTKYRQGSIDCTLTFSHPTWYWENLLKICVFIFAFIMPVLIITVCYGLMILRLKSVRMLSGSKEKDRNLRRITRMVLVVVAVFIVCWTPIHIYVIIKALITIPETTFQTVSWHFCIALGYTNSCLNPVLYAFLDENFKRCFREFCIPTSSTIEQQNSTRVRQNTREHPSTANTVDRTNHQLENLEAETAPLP

O=c1[nH]c(-c2ccc3c(c2)Oc2c(O)cccc2C3=C2CC3CCC(C2)N3)no1 [Cpd 134, 3-[9-(8-Aza-bicyclo[3.2.1]oct-3-ylidene)-5-hydroxy-9H-xanthen-3-yl]-4H-[1,2,4]oxadiazol-5-one]
Ki (mu opioid receptor; MOR Ki): 2 nM | Ki (delta opioid receptor; DOR Ki): 0.12 nM

O=C(NC1CCC(C(F)(F)F)CC1)c1ccc2c(c1)Oc1ccccc1C2=C1CC2CCC(C1)N2 (stereo not shown) [Cpd 62]
Ki (mu opioid receptor; read-out: MOR Ki): 7400 nM | Ki (delta opioid receptor; read-out: DOR Ki): 309 nM

CN(CCO)C(=O)c1ccc2c(c1)Oc1ccccc1C2=C1CC2CCC(C1)N2 [Cpd 61, 9-(8-Aza-bicyclo[3.2.1]oct-3-ylidene)-9H-xanthene-3-carboxylic acid (2-hydroxy-ethyl)-methyl-amide]
Ki (mu opioid receptor; MOR Ki): 876 nM | Ki (delta opioid receptor; DOR Ki): 6.25 nM

CN(C)C(=O)CN(C)C(=O)c1ccc2c(c1)Oc1ccccc1C2=C1CC2CCC(C1)N2 [Cpd 68]
Ki (mu opioid receptor; read-out: MOR Ki): 2390 nM | Ki (delta opioid receptor; read-out: DOR Ki): 8.5 nM

CC(C)CN(CC(C)C)C(=N)c1ccc2c(c1)Oc1ccccc1C2=C1CC2CCC(C1)N2 [Cpd 28]
Ki (mu opioid receptor; MOR Ki): 3100 nM | Ki (delta opioid receptor; DOR Ki): 107 nM

CCc1cnc(-c2ccc3c(c2)Oc2ccccc2C3=C2CC3CCC(C2)N3)[nH]1 [Cpd 26, 3-[3-(5-Ethyl-1 H-imidazol-2-yl)-xanthen-9-ylidene]-8-aza-bicyclo[3.2.1]-octane]
Ki (mu opioid receptor; MOR Ki): 249 nM | Ki (delta opioid receptor; DOR Ki): 81 nM

Oc1cccc(-c2ccc3c(c2)Oc2ccccc2C3=C2CC3CCC(C2)N3)c1 [Cpd 38]
Ki (mu opioid receptor; MOR Ki): 706 nM | Ki (delta opioid receptor; DOR Ki): 418 nM

N#Cc1ccc2c(c1)Oc1ccccc1C2=C1CC2CCC(C1)N2 [Cpd 77]
Ki (mu opioid receptor; read-out: MOR Ki): 2480 nM | Ki (delta opioid receptor; read-out: DOR Ki): 2710 nM

COc1cccc2c1Oc1cc(-c3cnc4ccccc4c3)ccc1C2=C1CC2CCC(C1)N2 [Cpd 104]
Ki (mu opioid receptor; read-out: MOR Ki): 1710 nM | Ki (delta opioid receptor; read-out: DOR Ki): 246 nM

O=C(NC(CO)Cc1ccccc1)c1ccc2c(c1)Oc1ccccc1C2=C1CC2CCC(C1)N2 (single isomer, unassigned) [Cpd 27]
Ki (mu opioid receptor; MOR Ki): 100 nM | Ki (delta opioid receptor; DOR Ki): 100 nM

c1ccc2c(c1)Oc1cc(-c3nnn[nH]3)ccc1C2=C1CC2CCC(C1)N2 [Cpd 81]
Ki (mu opioid receptor; read-out: MOR Ki): 261 nM | Ki (delta opioid receptor; read-out: DOR Ki): 0.5 nM

NC(=O)c1ccccc1-c1ccc2c(c1)Oc1ccccc1C2=C1CC2CCC(C1)N2 [Cpd 18]
Ki (mu opioid receptor; MOR Ki): 1540 nM | Ki (delta opioid receptor; DOR Ki): 38 nM

CN(C(=O)c1ccc2c(c1)Oc1ccccc1C2=C1CC2CCC(C1)N2)C1CCCCC1 [Cpd 22]
Ki (mu opioid receptor; MOR Ki): 1120 nM | Ki (delta opioid receptor; DOR Ki): 54.9 nM

O=C(NCc1ccccc1)c1ccc2c(c1)Oc1ccccc1C2=C1CC2CCC(C1)N2 [Cpd 40]
Ki (mu opioid receptor; read-out: MOR Ki): 3090 nM | Ki (delta opioid receptor; read-out: DOR Ki): 456 nM

O=C(NC1CCC(c2ccccc2)CC1)c1ccc2c(c1)Oc1ccccc1C2=C1CC2CCC(C1)N2 (stereo not shown) [Cpd 34]
Ki (mu opioid receptor; read-out: MOR Ki): 6240 nM | Ki (delta opioid receptor; read-out: DOR Ki): 247 nM

CN(Cc1ccccc1)C(=O)c1ccc2c(c1)Oc1ccccc1C2=C1CC2CCC(C1)N2 [Cpd 52]
Ki (mu opioid receptor; MOR Ki): 1830 nM | Ki (delta opioid receptor; DOR Ki): 2730 nM

CCOC(=O)N1C2CCC1CC(=C1c3ccccc3Oc3cc(C(=O)N(C)CCO)ccc31)C2 [Cpd 75]
Ki (mu opioid receptor; read-out: MOR Ki): 10000 nM | Ki (delta opioid receptor; read-out: DOR Ki): 4470 nM

O=C(N1C2CCC1CC(=C1c3ccccc3Oc3cc(-c4cccnc4)ccc31)C2)C(F)(F)F [Cpd 128]
Ki (mu opioid receptor; read-out: MOR Ki): > 10000 nM | Ki (delta opioid receptor; read-out: DOR Ki): > 10000 nM

O=S1NC(c2ccc3c(c2)Oc2ccccc2C3=C2CC3CCC(C2)N3)=NO1 (stereo not shown) [Cpd 10, 3-[3-(2-Oxo-2,3-dihydro-2|4-[1,2,3,5]oxathiadiazol-4-yl)-xanthen-9-ylidene]-8-aza-bicyclo[3.2.1]octane]
Ki (mu opioid receptor; MOR Ki): 819 nM | Ki (delta opioid receptor; DOR Ki): 15.1 nM

COc1cccc2c1Oc1cc(-c3ccoc3)ccc1C2=C1CC2CCC(C1)N2 [Cpd 105]
Ki (mu opioid receptor; read-out: MOR Ki): 497 nM | Ki (delta opioid receptor; read-out: DOR Ki): 88 nM

c1ccc(CN2C3CCC2CC(=C2c4ccccc4Sc4cc(-c5cccnc5)ccc42)C3)nc1 [Cpd 117]
Ki (mu opioid receptor; MOR Ki): 97 nM | Ki (delta opioid receptor; DOR Ki): 95 nM

CN(C(=O)c1ccc2c(c1)Oc1ccccc1C2=C1CC2CCC(C1)N2)c1ccccc1 [Cpd 14]
Ki (mu opioid receptor; MOR Ki): 1160 nM | Ki (delta opioid receptor; DOR Ki): 27.1 nM

COc1cccc2c1Oc1cc(-c3noc(=S)[nH]3)ccc1C2=C1CC2CCC(C1)N2 [Cpd 133, 3-[9-(8-Aza-bicyclo[3.2.1]oct-3-ylidene)-5-methoxy-9H-xanthen-3-yl]-4H-[1,2,4]oxadiazole-5-thione]
Ki (mu opioid receptor; MOR Ki): 371 nM | Ki (delta opioid receptor; DOR Ki): 2.37 nM
